# Source: patent US20120164671A1, “METHODS FOR MONITORING IMMUNOSUPPRESSANT DRUG LEVELS, RENAL FUNCTION, AND HEPATIC FUNCTION USING SMALL VOLUME SAMPLES” (priority 2008, published 2012)
# Where two headings read alike, the source gives them in different places.
# Settings: human, in vivo
# Procedure: The patient collected an approximately 500 μL blood sample from a fingerstick. The small volume blood sample was collected as described above, using a K2-EDTA collection tube, and timely transported to the testing facility. At the testing facility, the whole blood sample in K2-EDTA was split into 3 fractions: (1) 50 μL for immunosuppressant drug monitoring using tandem mass spectrometry, (2) 50 μL for complete blood count by flow cytometry, and (3) the remainder for various other tests.
# The first fraction was prepared by adding 200 μL of ZnSO4 (zinc sulfate) to the fraction, and the cells were lysed by vortexing for 10 seconds. Then 500 μL of a solution containing acetonitrile and internal reference standards (ascomycin: 2 nanograms (ng)/ml, along with cyclosporin D 25 ng/ml) was added, and the sample was mixed by vortexing for 20 seconds. The tubes were then spun down for 4 minutes at 14,000×g (14,000 times gravity). The supernatant was decanted into vials for assay by mass spectrometry.
# The patient collected an approximately 500 μL blood sample from a fingerstick. The small volume blood sample was collected using a K2-EDTA collection tube, transported to the testing facility, and divided into three fractions as described above. Each fraction was prepared as described above for the adult patient, and the same immunosuppressant drug monitoring of immunosuppressants, complete blood count, assays for renal function, and assays for hepatic function were performed.
SMILES,Result (blood level) (female) [µg/L],Result (blood level) (male) [µg/L]
C=CC[C@@H]1/C=C(\C)C[C@H](C)C[C@H](OC)[C@H]2O[C@@](O)(C(=O)C(=O)N3CCCC[C@H]3C(=O)O[C@H](/C(C)=C/[C@@H]3CC[C@@H](O)[C@H](OC)C3)[C@H](C)[C@@H](O)CC1=O)[C@H](C)C[C@@H]2OC [Tacrolimus],10.80,6.80
CO[C@H]1C[C@@H]2CC[C@@H](C)[C@@](O)(O2)C(=O)C(=O)N2CCCC[C@H]2C(=O)O[C@H]([C@H](C)C[C@@H]2CC[C@@H](O)[C@H](OC)C2)CC(=O)[C@H](C)/C=C(\C)[C@@H](O)[C@@H](OC)C(=O)[C@H](C)C[C@H](C)/C=C/C=C/C=C/1C [Rapamycin],3.10,5.10
